# Assay results published in patent US20250313533A1, “QUINOLINE CARBOXYLIC ACID ESTER COMPOUND AND PREPARATION METHOD AND USE THEREOF” (priority 2019, published 2025).
# Experiments:
# [1] = tested on: bacterial wilt in tobacco; test: whole plant or invertebrate; conditions: Nicotiana tabacum, read-out: efficacy against bacterial wilt in tobacco
# [2] = tested on: fruit blotch in watermelons; test: whole plant or invertebrate; conditions: read-out: efficacy against fruit blotch in watermelons
# [3] = tested on: pathogenic bacteria causing bacterial blight in rice; test: whole plant or invertebrate; assay type: cell-based, xanthomonas; conditions: read-out: inhibitory rate
# [4] = tested on: pathogenic bacteria causing bacterial wilt in tobacco; test: whole plant or invertebrate; assay type: cell-based, ralstonia; conditions: read-out: inhibitory rate
# black shank in potatoes = test: Living crops in vivo protective activity, potatoes (root irrigation); conditions: Solanum tuberosum, read-out: efficacy against black shank in potatoes; for pest or weed control at 5 ppm: dosage 5 ppm; for pest or weed control at 10 ppm: dosage 10 ppm
# Experimental: Root irrigation was carried out on the potatoes for tests according to the designed concentration of the agents. The dosage for each plant was 200 mL and was kept consistent (also for the control). The black shank bacteria were inoculated on the second day after the application. The results were investigated according to the disease condition.
# bacterial blight in rice = test: whole plant or invertebrate; conditions: Oryza sativa, read-out: efficacy against bacterial blight in rice
# [5] = tested on: pathogenic bacteria causing bacterial wilt in cassava; test: organism not typed; assay type: cell-based; conditions: read-out: inhibitory rate
# [6] = tested on: pathogenic bacteria causing black rot in Chinese cabbages; test: In vitro bactericidal activity, black rot in Chinese cabbages; assay type: cell-based, xanthomonas; conditions: Xanthomonas, read-out: inhibitory rate; for inhibition at 1 ppm: dosage 1 ppm; for inhibition at 5 ppm: dosage 5 ppm
# [7] = tested on: pathogenic bacteria causing stem rot in sweet potatoes; test: In vitro bactericidal activity, stem rot in sweet potatoes; assay type: cell-based, dikia; conditions: read-out: inhibitory rate; for inhibition at 1 ppm: dosage 1 ppm; for inhibition at 5 ppm: dosage 5 ppm
# [8] = tested on: soft rot in Chinese cabbages; test: whole plant or invertebrate; conditions: 48 h, read-out: efficacy against soft rot in Chinese cabbages
# [9] = tested on: pathogenic bacteria causing bacterial angular leaf spot in cucumbers; test: In vitro bactericidal activity, bacterial angular leaf spot in cucumbers; assay type: cell-based, pseudomonas; conditions: read-out: inhibitory rate; for inhibition at 1 ppm: dosage 1 ppm; for inhibition at 5 ppm: dosage 5 ppm
# cucumber seedlings = test: Safety for plant growth after application; assay type: in vivo; conditions: dosage 200 ppm
# Method in brief: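 Potted cucumber seedlings grown indoors; read-outs: plant-height growth rate, chlorophyll content, leaf area.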
# [10] = tested on: pathogenic bacteria causing black shank in potatoes; test: In vitro bactericidal activity, black shank in potatoes; assay type: cell-based; conditions: read-out: inhibitory rate; for inhibition at 1 ppm: dosage 1 ppm; for inhibition at 5 ppm: dosage 5 ppm
# [11] = tested on: pathogenic bacteria causing fruit blotch in watermelons; test: In vitro bactericidal activity, fruit blotch in watermelons; assay type: cell-based, acidovorax; conditions: read-out: inhibitory rate; for inhibition at 1 ppm: dosage 1 ppm; for inhibition at 5 ppm: dosage 5 ppm
# [12] = tested on: stem rot in sweet potatoes; test: whole plant or invertebrate; conditions: read-out: efficacy against stem rot in sweet potatoes
# [13] = tested on: indoor potted cucumber seedlings; test: Effect of improving growth and development of crops; assay type: in vivo; parameters: Rate of growth rate increase (%): concentration or dose not given beside the values; conditions: versus blank control; for Rate of chlorophyll content increase (%) / Rate of leaf area increase (%): 14 days after application; for Rate of growth rate increase (%): plant height 14 days after application; for Rate of leaf area increase (%): second leaf
# Method in brief: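 SPAD chlorophyll, plant height and second-leaf dimensions measured at application and 14 d later; leaf area from length (base to tip) and width (upper shoulder).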
# [14] = tested on: pathogenic bacteria causing fire blight in pears; test: In vitro bactericidal activity, fire blight in pears; assay type: cell-based, erwinia; conditions: Erwinia, read-out: inhibitory rate; for inhibition at 1 ppm: dosage 1 ppm; for inhibition at 5 ppm: dosage 5 ppm
SMILES,pest or weed control at 5 ppm [1],pest or weed control at 10 ppm [1],pest or weed control at 5 ppm [2],pest or weed control at 10 ppm [2],inhibition at 1 ppm [3],inhibition at 5 ppm [3],inhibition at 1 ppm [4],inhibition at 5 ppm [4],pest or weed control at 5 ppm (black shank in potatoes),pest or weed control at 10 ppm (black shank in potatoes),pest or weed control at 5 ppm (bacterial blight in rice),pest or weed control at 10 ppm (bacterial blight in rice),inhibition at 1 ppm [5],inhibition at 5 ppm [5],inhibition at 1 ppm [6],inhibition at 5 ppm [6],inhibition at 1 ppm [7],inhibition at 5 ppm [7],pest or weed control at 5 ppm [8],pest or weed control at 10 ppm [8],further results
CN(C)c1cc2c(cc1F)c(=O)c(C(=O)OCCO)cn2C1CC1 [Compound 413],≥ 90%,≥ 90%,≥ 90%,≥ 90%,≥ 90%,≥ 90%,≥ 90%,≥ 90%,≥ 90%,≥ 90%,≥ 90%,≥ 90%,≥ 90%,≥ 90%,≥ 90%,≥ 90%,≥ 90%,≥ 90%,≥ 90%,≥ 90%,"inhibition at 1 ppm [9]: ≥ 90%; inhibition at 5 ppm [9]: ≥ 90%; safety for plant growth (discoloration, necrosis, wilt, malformation) (cucumber seedlings): safe for plant growth; inhibition at 1 ppm [10]: ≥ 90%; inhibition at 5 ppm [10]: ≥ 90%; inhibition at 1 ppm [11]: ≥ 90%; inhibition at 5 ppm [11]: ≥ 90%; pest or weed control at 5 ppm [12]: ≥ 90%; pest or weed control at 10 ppm [12]: ≥ 90%; Rate of chlorophyll content increase (%) [13]: 13%; Rate of growth rate increase (%) [13]: 15%; Rate of leaf area increase (%) [13]: 16%; inhibition at 1 ppm [14]: ≥ 90%; inhibition at 5 ppm [14]: ≥ 90%"
COCCOC(=O)c1cn(C2CC2)c2cc(N(C)C)c(F)cc2c1=O [Compound 414],≥ 90%,≥ 90%,≥ 90%,≥ 90%,≥ 90%,≥ 90%,≥ 90%,≥ 90%,≥ 90%,≥ 90%,≥ 90%,≥ 90%,≥ 90%,≥ 90%,≥ 90%,≥ 90%,≥ 90%,≥ 90%,≥ 90%,≥ 90%,"inhibition at 1 ppm [9]: ≥ 90%; inhibition at 5 ppm [9]: ≥ 90%; safety for plant growth (discoloration, necrosis, wilt, malformation) (cucumber seedlings): safe for plant growth; inhibition at 1 ppm [10]: ≥ 90%; inhibition at 5 ppm [10]: ≥ 90%; inhibition at 1 ppm [11]: ≥ 90%; inhibition at 5 ppm [11]: ≥ 90%; pest or weed control at 5 ppm [12]: ≥ 90%; pest or weed control at 10 ppm [12]: ≥ 90%; Rate of chlorophyll content increase (%) [13]: 15%; Rate of growth rate increase (%) [13]: 12%; Rate of leaf area increase (%) [13]: 18%; inhibition at 1 ppm [14]: ≥ 90%; inhibition at 5 ppm [14]: ≥ 90%"
CCN(CC)c1cc2c(cc1F)c(=O)c(C(=O)OCCO)cn2C1CC1 [Compound 419],≥ 90%,≥ 90%,≥ 90%,≥ 90%,≥ 90%,≥ 90%,≥ 90%,≥ 90%,≥ 90%,≥ 90%,≥ 90%,≥ 90%,≥ 90%,≥ 90%,≥ 90%,≥ 90%,≥ 90%,≥ 90%,≥ 90%,≥ 90%,"inhibition at 1 ppm [9]: ≥ 90%; inhibition at 5 ppm [9]: ≥ 90%; safety for plant growth (discoloration, necrosis, wilt, malformation) (cucumber seedlings): safe for plant growth; inhibition at 1 ppm [10]: ≥ 90%; inhibition at 5 ppm [10]: ≥ 90%; inhibition at 1 ppm [11]: ≥ 90%; inhibition at 5 ppm [11]: ≥ 90%; pest or weed control at 5 ppm [12]: ≥ 90%; pest or weed control at 10 ppm [12]: ≥ 90%; Rate of chlorophyll content increase (%) [13]: 15%; Rate of growth rate increase (%) [13]: 11%; Rate of leaf area increase (%) [13]: 17%; inhibition at 1 ppm [14]: ≥ 90%; inhibition at 5 ppm [14]: ≥ 90%"
"CCN(CC)c1cc2c(cc1F)c(=O)c(C(=O)OCCOC)cn2C1CC1 [Compound 420, 2-methoxyethyl 1-cyclopropyl-7-(diethylamino)-6-fluoro-4-oxo-1,4-dihydroquinoline-3-carboxylate]",≥ 90%,≥ 90%,≥ 90%,≥ 90%,≥ 90%,≥ 90%,≥ 90%,≥ 90%,≥ 90%,≥ 90%,≥ 90%,≥ 90%,≥ 90%,≥ 90%,≥ 90%,≥ 90%,≥ 90%,≥ 90%,≥ 90%,≥ 90%,"inhibition at 1 ppm [9]: ≥ 90%; inhibition at 5 ppm [9]: ≥ 90%; safety for plant growth (discoloration, necrosis, wilt, malformation) (cucumber seedlings): safe for plant growth; inhibition at 1 ppm [10]: ≥ 90%; inhibition at 5 ppm [10]: ≥ 90%; inhibition at 1 ppm [11]: ≥ 90%; inhibition at 5 ppm [11]: ≥ 90%; pest or weed control at 5 ppm [12]: ≥ 90%; pest or weed control at 10 ppm [12]: ≥ 90%; Rate of chlorophyll content increase (%) [13]: 9%; Rate of growth rate increase (%) [13]: 9%; Rate of leaf area increase (%) [13]: 12%; inhibition at 1 ppm [14]: ≥ 90%; inhibition at 5 ppm [14]: ≥ 90%"
O=C(OCCO)c1cn(C2CC2)c2cc(N3CCOCC3)c(F)cc2c1=O [Compound 425],≥ 90%,≥ 90%,≥ 90%,≥ 90%,≥ 90%,≥ 90%,≥ 90%,≥ 90%,≥ 90%,≥ 90%,≥ 90%,≥ 90%,≥ 90%,≥ 90%,≥ 90%,≥ 90%,≥ 90%,≥ 90%,≥ 90%,≥ 90%,"inhibition at 1 ppm [9]: ≥ 90%; inhibition at 5 ppm [9]: ≥ 90%; safety for plant growth (discoloration, necrosis, wilt, malformation) (cucumber seedlings): safe for plant growth; inhibition at 1 ppm [10]: ≥ 90%; inhibition at 5 ppm [10]: ≥ 90%; inhibition at 1 ppm [11]: ≥ 90%; inhibition at 5 ppm [11]: ≥ 90%; pest or weed control at 5 ppm [12]: ≥ 90%; pest or weed control at 10 ppm [12]: ≥ 90%; Rate of chlorophyll content increase (%) [13]: 13%; Rate of growth rate increase (%) [13]: 10%; Rate of leaf area increase (%) [13]: 11%; inhibition at 1 ppm [14]: ≥ 90%; inhibition at 5 ppm [14]: ≥ 90%"
"COCCOC(=O)c1cn(C2CC2)c2cc(N3CCOCC3)c(F)cc2c1=O [Compound 426, 2-methoxyethyl 1-cyclopropyl-6-fluoro-7-morpholinyl-4-oxo-1,4-dihydroquinoline-3-carboxylate]",≥ 90%,≥ 90%,≥ 90%,≥ 90%,≥ 90%,≥ 90%,≥ 90%,≥ 90%,≥ 90%,≥ 90%,≥ 90%,≥ 90%,≥ 90%,≥ 90%,≥ 90%,≥ 90%,≥ 90%,≥ 90%,≥ 90%,≥ 90%,"inhibition at 1 ppm [9]: ≥ 90%; inhibition at 5 ppm [9]: ≥ 90%; safety for plant growth (discoloration, necrosis, wilt, malformation) (cucumber seedlings): safe for plant growth; inhibition at 1 ppm [10]: ≥ 90%; inhibition at 5 ppm [10]: ≥ 90%; inhibition at 1 ppm [11]: ≥ 90%; inhibition at 5 ppm [11]: ≥ 90%; pest or weed control at 5 ppm [12]: ≥ 90%; pest or weed control at 10 ppm [12]: ≥ 90%; Rate of chlorophyll content increase (%) [13]: 10%; Rate of growth rate increase (%) [13]: 9%; Rate of leaf area increase (%) [13]: 11%; inhibition at 1 ppm [14]: ≥ 90%; inhibition at 5 ppm [14]: ≥ 90%"
